According to PMC8710297, “Identification of potent SENP1 inhibitors that inactivate SENP1/JAK2/STAT signaling pathway and overcome platinum drug resistance in ovarian cancer” (Clinical and Translational Medicine, 2021):

Biological target: T1, SENP1(C603A) (Homo sapiens, UniProt Q9P0U3, C603A)
T1 construct: GST; made in house
T1 sequence (Q9P0U3 1-644 C603A): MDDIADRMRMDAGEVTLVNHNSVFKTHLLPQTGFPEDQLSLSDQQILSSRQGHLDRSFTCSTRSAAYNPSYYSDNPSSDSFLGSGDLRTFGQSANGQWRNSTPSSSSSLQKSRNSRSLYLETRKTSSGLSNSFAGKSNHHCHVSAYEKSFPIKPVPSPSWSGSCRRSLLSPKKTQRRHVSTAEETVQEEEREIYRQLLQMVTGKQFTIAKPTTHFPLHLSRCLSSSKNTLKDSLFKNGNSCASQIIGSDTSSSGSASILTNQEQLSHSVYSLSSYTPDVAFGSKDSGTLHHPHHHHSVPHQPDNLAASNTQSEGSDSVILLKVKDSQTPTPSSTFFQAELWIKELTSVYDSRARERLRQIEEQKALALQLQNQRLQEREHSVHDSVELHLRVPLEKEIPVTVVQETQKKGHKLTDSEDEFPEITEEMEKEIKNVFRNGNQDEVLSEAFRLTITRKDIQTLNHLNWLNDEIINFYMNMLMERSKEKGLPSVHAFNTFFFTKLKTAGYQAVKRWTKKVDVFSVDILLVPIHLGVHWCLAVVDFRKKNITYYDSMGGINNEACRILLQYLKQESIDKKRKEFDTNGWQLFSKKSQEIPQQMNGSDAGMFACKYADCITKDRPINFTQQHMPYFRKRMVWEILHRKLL
Experiment: UPLC-MS/MS of UA associated with IPs of SENP1 proteins
Assay type: binding
Details: mass-spec and surface plasmon resonance analyses
Experimental: FIGURE 2 UA directly interacts with Sentrin‐specific protease 1 (SENP1). (A) Cellular thermal shift assay to examine the interaction of UA with SENP1. IGROV1 CR cells pretreated with MG132 (10 μM, 1 h) were incubated with DMSO or UA for 4 h before being shifted to indicated temperatures. SENP1 stability was analyzed by using Western blot against SENP1 antibody. Right panel, quantification of non‐denatured SENP1 fraction shown in the left panel. (B) Cell‐free thermal shift assay to examine interactions of UA with SENP1. Purified SENP1 proteins were incubated with DMSO or UA for 4 h before being shifted to the indicated temperatures. SENP1 stability was analyzed by using Western blot against SENP1 antibody. Right panel, quantification of non‐denatured SENP1 fraction shown in the left panel. […] Stability of SENP1(C603A) was analyzed by using Western blot against SENP1 antibody. […] Left; Ultra‐high performance liquid‐chromatography‐MS/MS analyses of associated UA in indicated samples, right; quantification of data shown in left (the binding affinity of UA with SENP1‐C603A was normalized as 1). […]
Cell viability was detected using Sulforhodamine B (SRB) assay as described previously (3).
Absorbance at 51 0 nm was detected using a SpectraMax Re a d e r (Molecular Devices) and […]

C[C@H]1[C@H](C)CC[C@]2(C(=O)O)CC[C@]3(C)C(=CC[C@@H]4[C@@]5(C)CC[C@H](O)C(C)(C)[C@@H]5CC[C@]43C)[C@H]12 [UA, ursolic acid, reference compound]
binding of UA to SENP1(C603A) compared to SENP1: decreased binding affinities
